Data on 25 molecules can be found in US10947215B2, “Heteroaryl compounds and their use as therapeutic drugs” (Dong-A Socio Holdings Co., Ltd., priority 2015, dated 2021).

SMILES strings stand for the structures.

The subject of this assay is Ba/F3-CDM cells (Ba/F3 transfected with CD8-MerTK). In words: In cell MER kinase assay, Ba/F3-CDM cell proliferation without IL-3 (Celltiter-Glo, GI50). Type of assay: cell-based, murine. Conditions: 48 hours, read-out: Cell growth inhibition (GI50). As to the method:
In Cell MER Kinase Assay Using BaF3 Cellular System
To establish an in cell kinase assay for MerTK kinase, the IL-3 dependent Ba/F3 cells of murine lymphoid origin was transfected with CD8-MerTK. […] For a routine cellular assay, Ba/F3-CDM cells were seeded at 2,000 cells per well in 384-well cell culture plate containing DMEM/10% FBS culture media and incubated for 24 hours before addition of compounds pre-diluted in culture media. Following compound treatment, cells were further incubated for 48 hours and the proliferation was measured. To discriminate a Ba/F3 growth inhibition by a specific inhibition of MerTK kinase following compound treatment vs growth inhibition due to a non-specific unintended cytotoxicity of compounds, we routinely carried out control sets of Ba/F3 cells in parallel that grown in IL3-supplemented growth media. In the presence of IL-3, the proliferation of Ba/F3 is no longer dependent on the MerTK activity. Cell growth and proliferation was measured with Celltiter-Glo™ system (Promega, USA) according to the manufacturer's instruction. The half-maximal growth inhibitory concentration (GI50) value was calculated with Prism6.0 software (GraphPad, USA).
What is called GI50 is the concentration giving 50% growth inhibition. Consider `Cn1cc(-c2cnc(N)c(C(=O)N[C@H]3CCC[C@@H]3OCc3ccc(-c4ccc(CC5CCN(CC(N)=O)CC5)cc4)cc3)c2)cn1` [Example 242, 2-amino-N-((1S,2S)-2-((4′-((1-(2-amino-2-oxoethyl)piperidin-4-yl)methyl)-[1,1′-biphenyl]-4-yl)methoxy)cyclopentyl)-5-(1-methyl-1H-pyrazol-4-yl)-nicotinamide], for which the GI50 is less than 100 nM. Consider `CN(C)CCOc1ccc(-c2ccc(CO[C@H]3CCC[C@@H]3NC(=O)c3cc(-c4cnn(C)c4)cnc3N)cc2)cc1` [Example 245, 2-amino-N-((1S,2S)-2-((4′-(2-(dimethylamino)ethoxy)-[1,1′-biphenyl]-4-yl)methoxy)cyclopentyl)-5-(1-methyl-1H-pyrazol-4-yl)nicotinamide], for which the GI50 lay within 500 to 1000 nM. For `Cn1cc(-c2cnc(N)c(C(=O)N[C@H]3CCC[C@@H]3OCc3ccc(C#CCCO)cc3)c2)cn1` [Example 249, 2-amino-N-((1S,2S)-2-((4-(4-hydroxybut-1-yn-1-yl)benzyl)oxy)-cyclopentyl)-5-(1-methyl-1H-pyrazol-4-yl)nicotinamide] the value was greater than 1000 nM; for `Cn1cc(-c2cnc(N)c(C(=O)N[C@H]3CCC[C@@H]3OCc3ccc(C#CCCCCO)cc3)c2)cn1` [Example 251, 2-amino-N-((1S,2S)-2-((4-(6-hydroxyhex-1-yn-1-yl)benzyl)oxy)-cyclopentyl)-5-(1-methyl-1H-pyrazol-4-yl)nicotinamide], greater than 1000 nM.

Consider `Cc1ccc(CO[C@H]2CCC[C@@H]2NC(=O)c2cc(-c3ccc(CN4CCC(N5CCCC5)CC4)c(F)c3)cnc2N)cc1C` [Example 325, 2-amino-N-((1S,2S)-2-((3,4-dimethylbenzyl)oxy)cyclopentyl)-5-(3-fluoro-4-((4-(pyrrolidin-1-yl)piperidin-1-yl)methyl)phenyl)nicotinamide], for which the GI50 is greater than 1000 nM. As to `CCc1cc(CO[C@H]2CCC[C@@H]2NC(=O)c2cc(-c3ccc(C(C)(C)N4CCN(CCO)CC4)cc3)cnc2N)ccc1C` [Example 360, 2-amino-N-((1S,2S)-2-((3-ethyl-4-methylbenzyl)oxy)cyclopentyl)-5-(4-(2-(4-(2-hydroxyethyl)piperazin-1-yl)propan-2-yl)phenyl)nicotinamide], the GI50 is greater than 1000 nM.

On to `CN1CCN(Cc2ccc(-c3ccc(CO[C@H]4CCC[C@@H]4NC(=O)c4cc(-c5ccc(F)c(F)c5)cnc4N)cc3)cc2)CC1` [Example 364], for which the GI50 is less than 100 nM. As to `CN1CCC(n2cc(-c3cnc(N)c(C(=O)N[C@H]4CCC[C@@H]4OCc4ccc(-c5ccc(CN6CCN(C)CC6)cc5)cc4)c3)cn2)CC1` [Example 366, 2-amino-N-((1S,2S)-2-((4′-((4-methylpiperazin-1-yl)methyl)-[1,1′-biphenyl]-4-yl)methox)cyclopentyl)-5-(1-(1-methylpiperidin-4-yl)-1H-pyrazol-4-yl)nicotinamide], the GI50 is less than 100 nM. In the case of `CN1CCN(Cc2ccc(-c3ccc(CO[C@H]4CCC[C@@H]4NC(=O)c4cc(-c5ccc(N6CCN(C)CC6)cc5)cnc4N)cc3)cc2)CC1` [Example 367, 2-amino-N-((1S,2S)-2-((4′-((4-methylpiperazin-1-yl)methyl)-[1,1′-biphenyl]-4-yl)methoxy)cyclopentyl)-5-(4-(4-methylpiperazin-1-yl)phenyl)-nicotinamide], the GI50 was less than 100 nM. Take `CN1CCN(Cc2ccc(-c3ccc(CO[C@H]4CCC[C@@H]4NC(=O)c4cc(-c5ccc(CN6CCN(C)CC6)cc5)cnc4N)cc3)cc2)CC1` [Example 368, 2-amino-N-((1S,2S)-2-((4′-((4-methylpiperazin-1-yl)methyl)-[1,1′-biphenyl]-4-yl)methoxy)cyclopentyl)-5-(4-((4-methylpiperazin-1-yl)methyl)phenyl)nicotinamide]: the GI50 was less than 100 nM. The value for `CN1CCN(Cc2ccc(-c3ccc(CO[C@H]4CCC[C@@H]4NC(=O)c4cc(-c5ccc(CO)cc5)cnc4N)cc3)cc2)CC1` [Example 369, 2-amino-5-(4-(hydroxymethyl)phenyl)-N-((1S,2S)-2-((4′-((4-methylpiperazin-1-yl)methyl)-[1,1′-biphenyl]-4-yl)methoxy)cyclopentyl)nicotinamide] was less than 100 nM; that for `Cc1cccc(-c2cnc(N)c(C(=O)N[C@H]3CCC[C@@H]3OCc3ccc(-c4ccc(CN5CCN(C)CC5)cc4)cc3)c2)c1` [Example 370, 2-amino-N-((1S,2S)-2-((4′-((4-methylpiperazin-1-yl)methyl)-[1,1′-biphenyl]-4-yl)methoxy)cyclopentyl)-5-(m-tolyl)nicotinamide] was less than 100 nM; that for `CN1CCN(Cc2ccc(-c3ccc(CO[C@H]4CCC[C@@H]4NC(=O)c4cc(-c5ccccc5)cnc4N)cc3)cc2)CC1` [Example 371, 2-amino-N-((1S,2S)-2-((4′-((4-methylpiperazin-1-yl)methyl)-[1,1′-biphenyl]-4-yl)methoxy)cyclopentyl)-5-phenyl nicotinamide] was less than 100 nM. With `CN1CCN(Cc2ccc(-c3ccc(CO[C@H]4CCC[C@@H]4NC(=O)c4cc(-c5ccc(O)cc5)cnc4N)cc3)cc2)CC1` [Example 372, 2-amino-5-(4-hydroxyphenyl)-N-((1S,2S)-2-((4′-((4-methyl-piperazin-1-yl)methyl)-[1,1′-biphenyl]-4-yl)methoxy)cyclopentyl)nicotinamide], the GI50 is less than 100 nM. As for `CN1CCN(Cc2ccc(-c3ccc(CO[C@H]4CCC[C@@H]4NC(=O)c4cc(-c5cccnc5)cnc4N)cc3)cc2)CC1` [Example 375, 6-amino-N-((1S,2S)-2-((4′-((4-methylpiperazin-1-yl)methyl)-[1,1′-biphenyl]-4-yl)methoxy)cyclopentyl)-[3,3′-bipyridine]-5-carboxamide], the GI50 is less than 100 nM. On to `COc1ccc(-c2cnc(N)c(C(=O)N[C@H]3CCC[C@@H]3OCc3ccc(-c4ccc(CN5CCN(C)CC5)cc4)cc3)c2)cc1` [Example 376, 2-amino-5-(4-methoxyphenyl)-N-((1S,2S)-2-((4′-((4-methyl-piperazin-1-yl)methyl)-[1,1′-biphenyl]-4-yl)methoxy)cyclopentyl)nicotinamide], for which the concentration for 50% growth inhibition (GI50) was less than 100 nM. For the molecule `CN1CCN(Cc2ccc(-c3ccc(CO[C@H]4CCC[C@@H]4NC(=O)c4cc(-c5ccncc5)cnc4N)cc3)cc2)CC1` [Example 377, 6-amino-N-((1S,2S)-2-((4′-((4-methylpiperazin-1-yl)methyl)-[1,1′-biphenyl]-4-yl)methoxy)cyclopentyl)-[3,4′-bipyridine]-5-carboxamide], the GI50 is less than 100 nM. In the case of `CC1CCN(Cc2ccc(-c3cnc(N)c(C(=O)N[C@H]4CCC[C@@H]4OCc4ccc(-c5ccc(CN6CCN(C)CC6)cc5)cc4)c3)cc2)CC1` [Example 378, 2-amino-N-((1S,2S)-2-((4′-((4-methylpiperazin-1-yl)methyl)-[1,1′-biphenyl]-4-yl)methoxy)cyclopentyl)-5-(4-((4-methylpiperidin-1-yl)methyl)phenyl)-nicotinamide], the GI50 is less than 100 nM. As for `CN1CCN(Cc2ccc(-c3ccc(CO[C@H]4CCC[C@@H]4NC(=O)c4cc(-c5ccc(CN6CCOCC6)cc5)cnc4N)cc3)cc2)CC1` [Example 379, 2-amino-N-((1S,2S)-2-((4′-((4-methylpiperazin-1-yl)methyl)-[1,1′-biphenyl]-4-yl)methoxy)cyclopentyl)-5-(4-(morpholinomethyl)phenyl)nicotinamide], the GI50 was less than 100 nM. Regarding `CN1CCN(Cc2ccc(-c3ccc(CO[C@H]4CCC[C@@H]4NC(=O)c4cc(-c5cnn(C6CCOCC6)c5)cnc4N)cc3)cc2)CC1` [Example 380, 2-amino-N-((1S,2S)-2-((4′-((4-methylpiperazin-1-yl)methyl)-[1,1′-biphenyl]-4-yl)methoxy)cyclopentyl)-5-(1-(tetrahydro-2H-pyran-4-yl)-1H-pyrazol-4-vi)nicotinamide], the GI50 was less than 100 nM. Turning to `CN1CCN(Cc2ccc(-c3ccc(CO[C@H]4CCC[C@@H]4NC(=O)c4cc(-c5ccc(N6CCOCC6)cc5)cnc4N)cc3)cc2)CC1` [Example 381, 2-amino-N-((1S,2S)-2-((4′-((4-methylpiperazin-1-yl)methyl)-[1,1′-biphenyl]-4-yl)methoxy)cyclopentyl)-5-(4-morpholinophenyl)nicotinamide], the GI50 is less than 100 nM. For `COc1ccc(-c2cnc(N)c(C(=O)N[C@H]3CCC[C@@H]3OCc3ccc(-c4ccc(CN5CCN(C)CC5)cc4)cc3)c2)cc1OC` [Example 383, 2-amino-5-(3,4-dimethoxyphenyl)-N-((1S,2S)-2-((4′-((4-methyl-piperazin-1-yl)methyl)-[1,1′-biphenyl]-4-yl)methoxy)cyclopentyl)nicotinamide], the GI50 is less than 100 nM. As for `CN1CCN(Cc2ccc(-c3ccc(CO[C@H]4CCC[C@@H]4NC(=O)c4cc(-c5cc(F)nc(F)c5)cnc4N)cc3)cc2)CC1` [Example 384], the GI50 was less than 100 nM. Regarding `CN1CCN(Cc2ccc(-c3ccc(CO[C@H]4CCC[C@@H]4NC(=O)c4cc(-c5ccc(F)nc5)cnc4N)cc3)cc2)CC1` [Example 386, 6-amino-6′-fluoro-N-((1S,2S)-2-((4′-((4-methylpiperazin-1-yl)methyl)-[1,1′-biphenyl]-4-yl)methoxy)cyclopentyl)-[3,3′-bipyridine]-5-carboxamide], the GI50 is less than 100 nM. As to `CN1CCN(Cc2ccc(-c3ccc(CO[C@H]4CCC[C@@H]4NC(=O)c4cc(-c5cnn(C(F)(F)C(F)F)c5)cnc4N)cc3)cc2)CC1` [Example 387, 2-amino-N-((1S,2S)-2-((4′-((4-methylpiperazin-1-yl)methyl)-[1,1′-biphenyl]-4-yl)methoxy)cyclopentyl)-5-(1-(1,1,2,2-tetrafluoroethyl)-1H-pyrazol-4-yl)-nicotinamide], the GI50 is less than 100 nM.
